This note sets out measurements from PubChem BioAssay (NCI).

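Grown in 96-well plates, cells were treated for 48 hours with each compound at five concentrations. Insufficient inhibition: endpoint recorded as highest concentration tested. Abbreviation: GI50, concentration required for 50% inhibition of growth. TGI marks complete inhibition of growth.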

What all share (test): growth of human tumour cells (NCI), 48 h
Test [1] deals with HOP-62 NSCLC.
Test [2] relates to HT29 colon.
For test [3], the system named is MDA-MB-231 breast.
In test [4] the test system is UO-31 renal.
In test [5] the test system is HCC-2998 colon.
Test [6] deals with SNB-75 CNS.
Test [7] has as its system T-47D breast.
Test [8] relates to LOX IMVI melanoma.
Test [9] concerns CCRF-CEM leukemia.
Test [10] concerns NCI-H23 lung.

Turning to `COc1ccc2c(c1)oc(=O)c1cc(OC)ccc12`, the GI50 in [1] is more than 100 µM; in test [2], more than 100 µM; in test [3], more than 100 µM; in test [4], 32.9 µM; in [5], more than 100 µM; in test [6], more than 100 µM. Further, the GI50 in [7], in test [8], in test [9] and in test [10] was more than 100 µM throughout. For the same compound, the TGI in test [1], in test [2], in test [3], in [4], in test [5] and in [6] was more than 100 µM each time. Besides, the TGI in [7], in [8], in test [9] and in test [10] was more than 100 µM in each case.
For `Cc1ccc(-c2cc3c4c(nc5ccccc53)C(=O)c3cccnc3-c4n2)cc1`, the GI50 in test [1] was 15.7 µM; in test [2], 8.75 µM; in test [3], 16.8 µM; in test [4], 17.1 µM; in [5], 17.2 µM; in [6], 13.1 µM. The GI50 in test [7] is 22.7 µM; in test [8], 3.4 µM; in test [9], 8.04 µM; in test [10] it was 7.03 µM. The TGI in test [1] was 37.5 µM; in test [2], 22.8 µM; in test [3] it was more than 69.9 µM; in test [4], more than 82.6 µM; in test [5], 33.2 µM; in [6], more than 53.6 µM. The TGI is 99.4 µM in test [7], 14.5 µM in [8], more than 100 µM in [9] and 20.9 µM in [10].
As for `CC[C@@H](C(=O)[C@H](C)[C@H](O)[C@@H](C)[C@H]1O[C@H]([C@@H](CC)C(=O)N(CC)CC)CC[C@H]1C)C1O[C@]2(C=C[C@@H](O)[C@]3(CC[C@@](C)([C@H]4CC[C@](O)(CC)[C@H](C)O4)O3)O2)[C@H](C)C[C@@H]1C` (some centres undefined), the GI50 in test [1] is 4.33 µM; in [2] it was 3.34 µM; in [3], 1.86 µM; in test [4] it was 2.4 µM; in test [5] it was 2.97 µM; in test [6], 1.72 µM. For the same compound, the GI50 is 2.44 µM in [7], 1.83 µM in test [8], 3.39 µM in test [9] and 2.81 µM in test [10]. For the same compound, the TGI in test [1] came out at 19.5 µM; in test [2], 15.6 µM; in test [3], 4.29 µM; in test [4] it was 7.94 µM; in [5], 10.7 µM; in [6], 11.1 µM. The TGI was 13.7 µM in test [7], 4.29 µM in [8], 13.4 µM in [9] and 8.94 µM in test [10].
`CCOC(=O)c1cc(C(=O)c2cc(OC)c(OC)c(OC)c2)n2c1ccc1ccccc12`: the GI50 is 0.466 µM in test [1]; 0.254 µM in test [2]; 1.48 µM in test [3]; 0.502 µM in [4]; 0.514 µM in test [5]; 0.0599 µM in test [6]. For the same compound, the GI50 was 0.57 µM in [7], 0.669 µM in [8], 0.322 µM in test [9] and 0.478 µM in test [10]. Moreover, the TGI in test [1] was more than 100 µM; in [3], more than 100 µM; in test [4], more than 100 µM; in test [5] it was more than 100 µM; in [6], 0.617 µM; in test [7], more than 100 µM. Moreover, the TGI in [8], in test [9] and in test [10] was more than 100 µM in each case.
With `CC(C)(C)[Si](C)(C)OC1[C@@H](O[Si](C)(C)C(C)(C)C)[C@@H](CNC(=O)NC(=O)CF)O[C@H]1n1cnc2c(NC(=O)Nc3ccccc3)ncnc21` (some centres undefined), the GI50 in test [1] was 9.31 µM; in test [2], 7.35 µM; in test [3], 7.76 µM; in test [4] it was 11.2 µM; in [5], 9.23 µM; in test [6], 8.45 µM. In addition, the GI50 is 4.7 µM in test [7], 6.14 µM in test [8], 11.6 µM in test [9] and 14.3 µM in test [10]. Moreover, the TGI in test [1] was more than 50 µM; in test [2], 25.9 µM; in test [3], 23.1 µM; in test [4], more than 50 µM; in test [5] it was 31.3 µM; in test [6], more than 50 µM. In addition, the TGI was more than 50 µM in test [7], 12.5 µM in test [8], more than 50 µM in [9] and more than 50 µM in [10].
For the compound `C[C@@H]1CCC([C@@H](C)[C@H]2CC[C@H]3[C@@H]4CC[C@H]5C[C@@H](O)CC[C@]5(C)[C@H]4CC[C@]23C)=NC1`, the TGI was more than 51.3 µM in test [1]; more than 55.4 µM in test [2]; more than 84.6 µM in [3]; 46.3 µM in test [4]; 55.4 µM in [5]; more than 71 µM in test [6]. Further, the TGI in [7] is more than 61.9 µM; in test [8] it was more than 100 µM; in [9] it was more than 100 µM; in [10] it was more than 100 µM.
With `C[C@]12CC[C@@H]3c4cc(O)c(O)cc4CC[C@H]3[C@@H]1CC[C@@H]2O`, the GI50 in test [1] is 4.08 µM; in test [2], 27.2 µM; in [3], 4.61 µM; in [4], 5.68 µM; in test [5], 11.2 µM; in test [6], 1.55 µM. For the same compound, the GI50 in test [7] is 7.73 µM; in test [8] it was 5.97 µM; in test [9] it was 1.67 µM; in [10], 5.31 µM. Besides, the TGI in [1] is 54.6 µM; in test [2] it was 61.3 µM; in test [3], 52.5 µM; in [4] it was 77.8 µM; in [5], 41.8 µM; in test [6], 8.32 µM. Also, the TGI in [7] was 27.7 µM; in test [8], 23.6 µM; in [9], 20.2 µM; in [10], more than 83.7 µM.
